Converted amounts (≈) assume the structure as drawn. Some results are limits rather than exact numbers.

One assay concerns Daoy. Nature of the assay: Cytotoxicity against human DaOY cells after 48 hrs by MTS assay. The class given is functional, cell-based.
Another assay relates to Enterococcus raffinosus. Nature of the assay: Antibacterial activity against Enterococcus raffinosus. The class given is functional.
The next assay relates to Staphylococcus aureus. The experiment in a line: Antibacterial activity against Staphylococcus aureus. The class given is functional.
Another assay deals with NCI-H226. The experiment in a line: Growth inhibition of human NCI-H226 cells. It is filed as functional.
Assay [1] in a line: Growth inhibition of human NPC-TW01 cells. The class given is functional.
The next assay deals with Jurkat. Nature of the assay: Growth inhibition of human Jurkat cells. It is filed as functional.
In assay [2] the test system is Mycobacterium tuberculosis. Nature of the assay: Antitubercular activity against Mycobacterium tuberculosis assessed as growth inhibition. It is filed as functional.
Assay [3] in a line: Cytotoxicity against human Saos2 cells after 48 hrs by MTT assay. The class given is functional, cell-based. To be noted: SAOS-2, 48 h.
A short description of assay [4]: Cytotoxicity against human Saos2 cells assessed as inhibition of cell viability at 25 uM after 48 hrs by MTT assay relative to control. The class given is functional. To be noted: SAOS-2, 48 h.
The test system of a further assay is HL-60. Nature of the assay: Cytotoxicity against human HL60 cells by MTT assay. The class given is functional, cell-based.

For the compound `Fc1cccc(CNc2ncnc3c2cnn3CC(Cl)c2ccc(Br)cc2)c1` (configuration not stated), inhibition in the assay on Daoy was half-maximal at 3.5 µM (IC50).

In the case of `Nc1n[nH]c2nc(-c3ccccc3)nc(-c3ccc(Br)cc3)c12`, the values for the MIC against Enterococcus raffinosus and in the assay on Staphylococcus aureus were 12.3 µM (≈ 4.5 µg/mL) and 3.8 µM (≈ 1.39 µg/mL), respectively.

On to `Clc1ccc(-c2nn(-c3ccccc3)c3ncncc23)cc1`, for which the GI50 worked out at 18 µM in the assay with NCI-H226, 23 µM in assay [1] and 36 µM in the assay on Jurkat.

Consider `Cc1ccc(-c2nn(-c3ccc4ccccc4n3)c3ncncc23)cc1`, for which the GI50 stood at 29 µM in the assay on NCI-H226, 30 µM in [1] and 54 µM with Jurkat.

For `Clc1ccc(-c2nn(-c3ccc4ccccc4n3)c3ncncc23)cc1`, the GI50 in the assay with NCI-H226 is 39 µM; in assay [1], 35 µM; in the assay with Jurkat it was 69 µM.

Regarding `COc1ccc(-c2nn(-c3ccc4ccccc4n3)c3ncncc23)cc1`, the results for the GI50 (with NCI-H226; in assay [1]; with Jurkat) were 37 µM, 36 µM and above 100 µM, respectively.

`COc1ccc(-c2nc(-c3ccccc3)nc3[nH]nc(N)c23)cc1`: the MIC is 14.2 µM (≈ 4.51 µg/mL) in the assay on Enterococcus raffinosus and 4.2 µM (≈ 1.33 µg/mL) with Staphylococcus aureus.

Take `Nc1n[nH]c2nc(-c3ccccc3)nc(-c3ccc(Cl)cc3)c12`: the MIC in the assay on Enterococcus raffinosus was above 300 µM; in the assay on Staphylococcus aureus, 190 µM (≈ 61.2 µg/mL).

As to `Nc1ccc(-c2nc(-c3ccccc3)nc3[nH]nc(N)c23)cc1`, the MIC in the assay with Enterococcus raffinosus came to 82.8 µM (≈ 25 µg/mL); in the assay on Staphylococcus aureus it was 34.5 µM (≈ 10.4 µg/mL).

With `C#CCn1ncc2c(SCc3ccccc3)ncnc21`, in [2], the “inhibition (INH)” value is above 90%. Further, the MIC in [2] (Mycobacterium tuberculosis) was found to be 12.5 µg/mL (≈ 44.6 µM).

The compound `CSc1nc(Nc2cccc(Cl)c2)c2cnn(CC(Cl)c3ccccc3)c2n1` (configuration not stated) yielded an IC50 in assay [3] of 11.6 µM. Also, the inhibition at 25 µM in [4] was 93.3%.

With `Fc1ccc(CNc2ncnc3c2cnn3CC(Cl)c2ccc(Cl)cc2)cc1` (configuration not stated), the IC50 with Daoy came out at 1.72 µM.

On to `CC(C)(C)n1nc(-c2ccc(Cl)cc2)c2c(N)ncnc21`, for which half-maximal inhibition in assay [3] (IC50) required 8.07 µM. Moreover, the inhibition at 25 µM in assay [4] was 85.3%.

As to `CCCCNc1ncnc2c1cnn2CC(Cl)c1ccccc1` (configuration not stated), the IC50 in assay [3] stood at 14.6 µM; in the assay with Daoy, 6.24 µM. The inhibition at 25 µM in assay [4] turned out to be 71.1%.

Turning to `COc1cccc2c1C(=O)c1c(O)c3c(c(O)c1C2=O)C[C@@](O)(C(=O)CO)C[C@@H]3O[C@H]1C[C@H](N)[C@H](O)[C@H](C)O1` [DOXORUBICIN], in the assay with HL-60, the midpoint of inhibition, the IC50, lay at 550 nM.

For the origin of these results see ChEMBL document CHEMBL3232891, “Medicinal attributes of pyrazolo[3,4-d]pyrimidines: a review” (Bioorg Med Chem, 2013).
